Laboratory results from publication PMC4904246 (Journal of Medicinal Chemistry, 2016).
Values after ≈ are worked out from the molar mass of the structure shown. Like-named read-outs stand apart in the source and are kept apart here. Marks after values point to notes of the source that are not given here.

What was measured:
[1] = scaled; cited from earlier work
[2] = pH 6.5, 30 min at room temperature; cited from earlier work
[3] = target: T1, PvDHODH (Plasmodium vivax, UniProt A5K1N1); conditions: read-out: PvDHODH IC50; previous reports; 2 from 15, 3 from 16; cited from earlier work
T1 sequence (A5K1N1 160-572): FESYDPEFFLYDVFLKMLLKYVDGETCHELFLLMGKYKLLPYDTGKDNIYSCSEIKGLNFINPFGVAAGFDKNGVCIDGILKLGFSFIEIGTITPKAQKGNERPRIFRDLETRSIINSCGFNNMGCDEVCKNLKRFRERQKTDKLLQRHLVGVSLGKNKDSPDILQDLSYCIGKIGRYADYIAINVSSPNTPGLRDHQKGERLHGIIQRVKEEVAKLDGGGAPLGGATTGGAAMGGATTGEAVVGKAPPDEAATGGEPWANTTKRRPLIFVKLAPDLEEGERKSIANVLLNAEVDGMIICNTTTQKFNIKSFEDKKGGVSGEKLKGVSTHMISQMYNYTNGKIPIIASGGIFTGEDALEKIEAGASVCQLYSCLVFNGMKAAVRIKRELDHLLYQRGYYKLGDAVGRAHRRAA

[4] = target: dog DHODH (Canis lupus familiaris, UniProt A0A8I3MWX2); assay: biochemical
Chain of dog DHODH (A0A8I3MWX2 1-406): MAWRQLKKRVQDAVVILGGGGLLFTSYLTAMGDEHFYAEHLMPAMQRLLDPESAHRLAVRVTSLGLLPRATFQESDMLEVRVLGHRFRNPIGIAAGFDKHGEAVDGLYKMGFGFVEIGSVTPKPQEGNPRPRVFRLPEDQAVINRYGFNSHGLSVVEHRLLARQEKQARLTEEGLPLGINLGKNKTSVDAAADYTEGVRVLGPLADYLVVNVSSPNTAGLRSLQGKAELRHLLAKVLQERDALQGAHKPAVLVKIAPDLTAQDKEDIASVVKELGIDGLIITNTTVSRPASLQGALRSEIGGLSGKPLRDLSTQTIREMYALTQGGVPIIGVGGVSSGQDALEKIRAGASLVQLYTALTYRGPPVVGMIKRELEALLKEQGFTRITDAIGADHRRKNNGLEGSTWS

[5] = in vitro metabolism, human liver microsomes; assay type: in vitro ADME
[6] = plasma protein binding by ultracentrifugation, mouse plasma; assay type: in vitro ADME; conditions: for mouse PPB (% bound): approximation based on rat and human plasma protein binding data; for PPB mouse (% bound): mouse plasma, ultracentrifugation
[7] = kinetic aqueous solubility by nephelometry; assay type: physicochemical; conditions: for solubility kinetic at 30 min: pH 6.5 phosphate buffer, pH 6.5
[8] = in vivo; conditions: Sprague-Dawley, rat, plasma, iv
[9] = system: P. falciparum Pf3D7_0087/N9 parasites; conditions: for AUCED90: total blood AUC at the ED90, Day 1 pharmacokinetic data, QD, only two dose levels
[10] = target: T1, PvDHODH; conditions: PvDHODH IC50 higher than PfDHODH IC50
[11] = plasma protein binding by ultracentrifugation, rat plasma; assay type: in vitro ADME
[12] = plasma protein binding by ultracentrifugation, human plasma; assay type: in vitro ADME
[13] = in vitro metabolism, rat liver microsomes; assay type: in vitro ADME; conditions: from rat microsomal CLint using physiological scaling factors
[14] = in vitro metabolism, mouse liver microsomes; assay type: in vitro ADME
[15] = scaled; cited from earlier work; remark: listed apart in the source
[16] = system: P. falciparum 3D7 cells; conditions: read-out: EC50 Pf3D7 cells; previous reports; 2 from 15, 3 from 16; cited from earlier work
[17] = target: T2, hDHODH (Homo sapiens, UniProt Q02127); conditions: read-out: hDHODH IC50; previous reports; 2 from 15, 3 from 16; cited from earlier work
T2 sequence (Q02127 31-395 limits assumed): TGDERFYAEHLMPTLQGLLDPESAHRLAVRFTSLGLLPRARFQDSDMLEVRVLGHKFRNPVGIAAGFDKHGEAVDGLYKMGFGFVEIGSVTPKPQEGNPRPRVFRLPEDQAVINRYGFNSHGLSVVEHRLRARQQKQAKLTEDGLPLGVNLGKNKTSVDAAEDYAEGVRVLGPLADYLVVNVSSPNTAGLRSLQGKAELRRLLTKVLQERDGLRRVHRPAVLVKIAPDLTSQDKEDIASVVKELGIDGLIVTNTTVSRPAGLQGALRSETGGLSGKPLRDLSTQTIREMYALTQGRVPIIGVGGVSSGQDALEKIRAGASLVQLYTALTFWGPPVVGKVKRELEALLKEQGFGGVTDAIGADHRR

[18] = rat plasma; cited from earlier work
[19] = system: P. falciparum Pf3D7_0087/N9 parasites; conditions: cited from earlier work
[20] = cited from earlier work
[21] = plasma; cited from earlier work
[22] = cited from earlier work; remark: listed apart in the source
[23] = fed state simulated intestinal fluid, pH 5.8 (footnote c); cited from earlier work
[24] = mouse plasma; cited from earlier work
[25] = target: hERG K+ channel (Homo sapiens, UniProt Q12809)
Chain of hERG K+ channel (Q12809 whole entry): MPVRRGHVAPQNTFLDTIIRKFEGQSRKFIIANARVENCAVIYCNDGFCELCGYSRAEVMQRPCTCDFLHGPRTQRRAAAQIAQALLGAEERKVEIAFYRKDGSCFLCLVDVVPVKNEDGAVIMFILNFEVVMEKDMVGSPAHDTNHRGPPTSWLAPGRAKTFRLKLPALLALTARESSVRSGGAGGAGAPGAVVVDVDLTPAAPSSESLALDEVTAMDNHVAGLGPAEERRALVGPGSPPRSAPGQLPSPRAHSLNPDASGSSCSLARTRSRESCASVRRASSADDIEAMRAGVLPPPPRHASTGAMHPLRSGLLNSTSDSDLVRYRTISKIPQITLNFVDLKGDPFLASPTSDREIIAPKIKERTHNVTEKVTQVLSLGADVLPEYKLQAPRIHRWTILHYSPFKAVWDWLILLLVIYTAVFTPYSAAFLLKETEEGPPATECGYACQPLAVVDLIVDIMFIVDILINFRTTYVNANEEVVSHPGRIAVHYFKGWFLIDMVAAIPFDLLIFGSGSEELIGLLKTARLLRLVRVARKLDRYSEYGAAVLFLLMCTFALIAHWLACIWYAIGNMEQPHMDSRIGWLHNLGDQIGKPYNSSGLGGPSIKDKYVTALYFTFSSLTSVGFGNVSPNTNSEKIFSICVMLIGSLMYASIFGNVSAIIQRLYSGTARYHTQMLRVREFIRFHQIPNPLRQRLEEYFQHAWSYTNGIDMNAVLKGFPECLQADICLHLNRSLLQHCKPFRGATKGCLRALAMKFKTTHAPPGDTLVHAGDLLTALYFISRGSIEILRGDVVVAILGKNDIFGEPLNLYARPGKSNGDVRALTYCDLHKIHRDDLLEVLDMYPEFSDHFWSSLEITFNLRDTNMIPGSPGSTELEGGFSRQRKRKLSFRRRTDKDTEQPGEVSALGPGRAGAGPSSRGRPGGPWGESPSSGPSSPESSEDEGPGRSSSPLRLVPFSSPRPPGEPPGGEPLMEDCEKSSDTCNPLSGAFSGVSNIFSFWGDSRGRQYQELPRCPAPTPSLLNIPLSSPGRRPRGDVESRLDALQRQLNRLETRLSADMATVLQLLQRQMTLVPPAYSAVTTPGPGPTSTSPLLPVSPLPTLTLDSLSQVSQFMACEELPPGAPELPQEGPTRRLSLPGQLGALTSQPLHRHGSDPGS

[26] = target: T2, hDHODH; assay: biochemical
[27] = target: T2, hDHODH
[28] = approximate
[29] = human, pooled human liver microsomes
[30] = 1 QD, converted to different units

| SMILES | predicted in vivo CLint human [1] | IC50 [4] [µM] | CLint scaled at 1 μM [5, 29] [mL/min/kg] | solubility kinetic at 30 min [7] [µg/mL] | clearance [8] [mL/min/kg] | difference of IC50 P. vivax DHODH versus PfDHODH [10] | PPB rat (% bound) [11] [% bound] | PPB human (% bound) [12] [% bound] | PPB mouse (% bound) [6] [% bound] | other results |
| --- | --- | --- | --- | --- | --- | --- | --- | --- | --- | --- |
| Cc1cc(Nc2ccc(C(F)(F)F)cc2)n2ncnc2n1 [Compound 3, (5-methyl[1,2,4]triazolo[1,5-a]pyrimidin-7-yl)(4-trifluoromethylphenyl)amine] | 6.2/ND/ND mL/min/kg |  |  |  |  |  |  |  |  | kinetic solubility pH 6.5 [2]: 6.3–12.5 μg/mL; IC50 [3]: 2.6 µM |
| Cc1cc(NC2CCc3cc(Cl)ccc3C2)n2nc(C(C)(F)F)nc2n1 (stereo not shown) [Compound 7, 2-(1,1-Difluoroethyl)-N-(6-chloro-1,2,3,4-tetrahydronaphthalen-2-yl)-5-methyl-[1,2,4]triazolo[1,5-a]pyrimidin-7-amine] |  | > 100 | < 5.8 | 3.1 to 6.3 (≈ 8.2 to 16.7 µM) | 3.5 | 5–8 fold | 99.2 | 98.8 |  | mouse PPB (% bound) [6]: 99.2 ^c % bound; AUCED90 [9]: >23 μM·h/day |
| Cc1cc(NC2CCc3cc(Br)ccc3C2)n2nc(C(C)(F)F)nc2n1 (stereo not shown) [Compound 11, 2-(1,1-Difluoroethyl)-N-(6-bromo-1,2,3,4-tetrahydronaphthalen-2-yl)-5-methyl-[1,2,4]triazolo[1,5-a]pyrimidin-7-amine] |  | > 100 |  |  | 2.8 | 5–8 fold | 99.7 | 99.0 | 99.2 | predicted in vivo CLint human ([5]; from human microsomal CLint using physiological scaling factors): < 5.8 mL/min/kg; in vitro CLint human ([5]; human liver microsomes): < 7 μL/min/mg protein; kinetic solubility pH 6.5 ([7]; pH 6.5, range following 30 min at room temperature): 3.1–6.3 μg/mL; predicted in vivo CLint rat [13]: 19 mL/min/kg; predicted in vivo CLint mouse ([14]; from mouse microsomal CLint using physiological scaling factors): 67 mL/min/kg; in vitro CLint mouse ([14]; mouse liver microsomes): 26 μL/min/mg protein |
| Cc1cc(Nc2ccc3ccccc3c2)n2ncnc2n1 [Compound 2, (5-methyl[1,2,4]triazolo[1,5-a]pyrimidin-7-yl)naphthalen-2-ylamine] | 79 mL/min/kg |  |  |  |  |  |  |  |  | predicted in vivo CLint mouse [15]: 591 mL/min/kg; kinetic solubility pH 6.5 [2]: 12.5–25 μg/mL; EC50 [16]: 0.068 µM; IC50 [3]: 0.23 µM; IC50 [17]: > 100 µM |
| Cc1cc(Nc2ccc(S(F)(F)(F)(F)F)cc2)n2nc(C(C)(F)F)nc2n1 [Compound 1, 2-(1,1-difluoroethyl)-5-methyl-N-[4-(pentafluoro-λ^6-sulfanyl)phenyl]-[1,2,4]triazolo[1,5-a]pyrimidin-7-amine] | 3.5 mL/min/kg |  |  |  |  |  |  |  |  | PPB rat (% bound) [18]: 97.7 % bound; ED90 ([19]; 1, QD dosing): 8.1 mg/kg; AUCED90 [19, 30]: 45.7 μM·h/day; ED90 [19, 30]: 8.1 mg/kg/day; apparent T1/2 ([20]; rat IV […], […]): 13 h; oral BA ([20]; rat): 57%; PPB human (% bound) [21]: 99.9 % bound; predicted in vivo CLint mouse [15]: 7.2 mL/min/kg; in vitro CLint rat ([22]; rat liver microsomes): 1.8 μL/min/mg protein; predicted in vivo CLint rat ([22]; rat, scaled): 3.1 mL/min/kg; solubility FeSSIF pH 5.8 [23]: 27.6 ^c μg/mL; PPB mouse (% bound) [24]: 99.7 % bound; unbound plasma concentration at likely therapeutic doses lower than the IC50 for hERG channel inhibition ([25]; human, plasma): 70–320 fold |
| Cc1cc(NC2CCc3ccc(Br)cc3C2)n2nc(C(C)(F)F)nc2n1 (stereo not shown) [Compound 13, 2-(1,1-Difluoroethyl)-N-(7-bromo-1,2,3,4-tetrahydronaphthalen-2-yl)-5-methyl-[1,2,4]triazolo[1,5-a]pyrimidin-7-amine] |  | > 100 | < 5.8 | 1.6 to 3.1 (≈ 3.79 to 7.34 µM) | 22.4 | 1.5–3 fold | 97.2 | 96.3 |  | microsomal CLint at 1 μM [5, 29]: < 7 µL/min/mg; IC50 [26]: > 100 µM; mouse PPB (% bound) [6]: 97.2 ^c % bound; IC50 ([27]; read-out: DHODH IC50 human, Table 2, for 1 four independent replicates): > 100 µM |
| Cc1cc(NC2CCc3ccc(Cl)cc3C2)n2nc(C(F)(F)F)nc2n1 (stereo not shown) [Compound 24, N-(7-Chloro-1,2,3,4-tetrahydronaphthalen-2-yl)-5-methyl-2-(trifluoromethyl)-[1,2,4]triazolo[1,5-a]pyrimidin-7-amine] |  |  | 7.4 | 1.6 to 3.1 (≈ 4.19 to 8.12 µM) |  |  |  |  |  |  |
| Cc1cc(N[C@H]2CCc3ccc(Cl)cc3C2)n2nc(C(C)(F)F)nc2n1 [Compound 9, (S)-N-(7-Chloro-1,2,3,4-tetrahydronaphthalen-2-yl)-2-(1,1-difluoroethyl)-5-methyl-[1,2,4]triazolo[1,5-a]pyrimidin-7-amine] |  | > 100 | < 5.8 | 3.1 to 6.3 (≈ 8.2 to 16.7 µM) |  | 1.5–3 fold | 96.4 | 96.7 | 97.4 | Cmax at the ED90 in the SCID study, unbound concentration [28]: approximately 0.05 μM; unbound Cmax at the ED90 lower than the IC50 on the hERG channel ([25]; SCID study): ~30 fold |
| Cc1cc(NC2CCc3ccc(Br)cc3C2)n2nc(C(C)(F)F)nc2n1 (stereo not shown) [Compound 14, 2-(1,1-Difluoroethyl)-N-(7-bromo-1,2,3,4-tetrahydronaphthalen-2-yl)-5-methyl-[1,2,4]triazolo[1,5-a]pyrimidin-7-amine] |  |  |  |  |  |  |  |  |  | IC50 ([27]; read-out: hDHODH IC50): > 100 µM |
| Cc1cc(NC2Cc3cc(F)c(F)cc3C2)n2nc(C(C)(F)F)nc2n1 [Compound 35, N-(5,6-Difluoro-2,3-dihydro-1H-inden-2-yl)-2-(1,1-difluoroethyl)-5-methyl-[1,2,4]triazolo[1,5-a]pyrimidin-7-amine] |  | > 100 | < 5.8 | 6.3 to 12.5 (≈ 17.2 to 34.2 µM) |  | 7 fold | 94.2 | 93.4 | 95.3 | ED90 ([9]; oral QD for 4 days): > 30 mg/kg; AUCED90 [9]: ∼137 μM·h/day |
